The text below walks through data of patent US8536332B2, “Modulating signal transduction pathways with substituted pyridol [2,3-b] pyrazines” (Aeterna Zentaris GmbH, priority 2007, dated 2013).

The term melting point denotes the temperature, or range, at which the solid turns liquid.

For the compound `COc1cc(Nc2cnc3ccc(NC(=S)NCCc4ccccc4)nc3n2)cc(OC)c1OC` [Compound 699, 1-Phenethyl-3-[3-(3,4,5-trimethoxy-phenylamino)-pyrido[2,3-b]pyrazin-6-yl]-thiourea], the melting point was in the range of 197 to 200 °C.

In the case of `CCNC(=O)Nc1ccc2ncc(-c3cc(C)cc(C)c3)nc2n1` [Compound 82, 1-[3-(3,5-Dimethyl-phenyl)-pyrido[2,3-b]pyrazin-6-yl]-3-ethyl-urea], the melting point was 255.3 to 257.9 °C.

Regarding `Cc1cc(-c2ccc3ncc(NC(=O)Nc4ccc(N(C)C)cc4)nc3n2)cc(C)c1O` [Compound 583], the melting point was 273 to 275 °C.

In the case of `COc1cc(Nc2cnc3ccc(NC(=S)NCc4ccc(C)cc4)nc3n2)cc(OC)c1OC` [Compound 698, 1-(4-Methyl-benzyl)-3-[3-(3,4,5-trimethoxy-phenylamino)-pyrido[2,3-b]pyrazin-6-yl]-thiourea], the melting point is 248 to 250 °C.

`CCNC(=O)Nc1ccc2ncc(-c3cccc(C)c3)nc2n1` [Compound 100, 1-Ethyl-3-(3-m-tolyl-pyrido[2,3-b]pyrazin-6-yl)-urea] came in with a melting point of 232 to 234 °C.

`CCNC(=O)Nc1ccc2ncc(Nc3ccc(N(C)C)cc3)nc2n1` [Compound 169, 1-[3-(4-Dimethylamino-phenylamino)-pyrido[2,3-b]pyrazin-6-yl]-3-ethyl-urea] showed a melting point of 228 °C.

As to `CCNC(=O)Nc1cnc2ccc(-c3cc(C(C)(C)C)c(O)c(C(C)(C)C)c3)nc2n1` [Compound 596, 1-[6-(3,5-Di-tert-butyl-4-hydroxy-phenyl)-pyrido[2,3-b]pyrazin-3-yl]-3-ethyl-urea], the melting point stood at 263 °C.

On to `CCNC(=S)Nc1ccc2ncc(Nc3ccc(-n4cncn4)cc3)nc2n1` [Compound 164, 1-Ethyl-3-[3-(4-[1,2,4]triazol-1-yl-phenylamino)-pyrido[2,3-b]pyrazin-6-yl]-thiourea], for which the melting point was 294 °C.

The compound `CCNC(=O)Nc1cnc2ccc(-c3ccc(OC)cc3)nc2n1` [Compound 11, 1-Ethyl-3-[6-(4-methoxy-phenyl)-pyrido[2,3-b]pyrazin-3-yl]-urea] displayed a melting point of 244 °C.

`CCNC(=O)Nc1ccc2ncc(Nc3ccc(OC)c(O)c3)nc2n1` [Compound 156, 1-Ethyl-3-[3-(3-hydroxy-4-methoxy-phenylamino)-pyrido[2,3-b]pyrazin-6-yl]-urea] came in with a melting point of 281 °C.

Consider `CCNC(=S)Nc1cnc2ccc(Nc3cccc(CC(=O)O)c3)nc2n1` [Compound 195, {3-[3-(3-Ethyl-thioureido)-pyrido[2,3-b]pyrazin-6-ylamino]-phenyl}-acetic acid], for which the melting point is 248 °C.

The compound `COc1cc(-c2ccc3ncc(NC(=O)N(C)c4ccc(C(C)C)cc4)nc3n2)ccc1O` [Compound 635, 3-[6-(4-Hydroxy-3-methoxy-phenyl)-pyrido[2,3-b]pyrazin-3-yl]-1-(4-isopropyl-phenyl)-1-methyl-urea] gave a melting point of 226 to 228 °C.

In turn, `CCNC(=O)Nc1ccc2ncc(Nc3ccccc3)nc2n1` [Compound 64, 1-Ethyl-3-(3-phenylamino-pyrido-[2,3-b]pyrazin-6-yl)-urea] had a melting point of 229 to 231 °C.

As to `CCNC(=O)Nc1ccc2ncc(-c3cnn(Cc4ccccc4)c3)nc2n1` [Compound 58, 1-[3-(1-Benzyl-1H-pyrazol-4-yl)-pyrido[2,3-b]pyrazin-6-yl]-3-ethyl-urea], the melting point fell in the range of 258 to 261 °C.

With `COc1ccc(-c2ccc3ncc(NC(=O)Nc4ccc(N(C)C)cc4)nc3n2)cc1OC` [Compound 569, 1-[6-(3,4-Dimethoxy-phenyl)-pyrido[2,3-b]pyrazin-3-yl]-3-(4-dimethylamino-phenyl)-urea], the melting point is 262 to 263 °C.

Consider `COc1cc(-c2ccc3ncc(NC(=O)NC(C)(C)CC(C)(C)C)nc3n2)ccc1O` [Compound 613, 1-[6-(4-Hydroxy-3-methoxy-phenyl)-pyrido[2,3-b]pyrazin-3-yl]-3-(1,1,3,3-tetramethyl-butyl)-urea], for which the melting point was in the range of 232 to 236 °C.

In the case of `CCCOc1c(C)cc(-c2ccc3ncc(NC(=O)NCC)nc3n2)cc1C` [Compound 598, 1-[6-(3,5-Dimethyl-4-propoxy-phenyl)-pyrido[2,3-b]pyrazin-3-yl]-3-ethyl-urea], the melting point is 232 °C.

The compound `CCNC(=S)Nc1cnc2ccc(Nc3ccc(O)cc3)nc2n1` [Compound 198, 1-Ethyl-3-[6-(4-hydroxy-phenylamino)-pyrido[2,3-b]pyrazin-3-yl]-thiourea] showed a melting point of 258 °C.

On to `CCNC(=S)Nc1ccc2ncc(-c3cccc(OC(C)C)c3)nc2n1` [Compound 127, 1-Ethyl-3-[3-(3-isopropoxy-phenyl)-pyrido[2,3-b]pyrazin-6-yl]-thiourea], for which the melting point is 227 °C.

`CCNC(=O)Nc1ccc2ncc(-c3cc(Cl)ccc3Cl)nc2n1` [Compound 92, 1-[3-(2,5-Dichloro-phenyl)-pyrido[2,3-b]pyrazin-6-yl]-3-ethyl-urea]: the melting point fell in the range of 264 to 269 °C.

The compound `CCCCOc1c(C)cc(-c2ccc3ncc(NC(=O)NCC)nc3n2)cc1C` [Compound 599, 1-[6-(4-Butoxy-3,5-dimethyl-phenyl)-pyrido[2,3-b]pyrazin-3-yl]-3-ethyl-urea] yielded a melting point of 233 °C.

The compound `CCNC(=O)Nc1ccc2ncc(-c3c(F)cccc3OC)nc2n1` [Compound 137] gave a melting point of 236 to 239 °C.

`CCNC(=O)Nc1ccc2ncc(Nc3ccc(C)cc3C)nc2n1` [Compound 398, 1-[3-(2,4-Dimethyl-phenylamino)-pyrido[2,3-b]pyrazin-6-yl]-3-ethyl-urea] came in with a melting point of 210 °C.

Consider `COc1cc(Nc2cnc3ccc(NC(=S)Nc4c(C)noc4C)nc3n2)cc(OC)c1OC` [Compound 695, 1-(3,5-Dimethyl-isoxazol-4-yl)-3-[3-(3,4,5-trimethoxy-phenylamino)-pyrido[2,3-b]pyrazin-6-yl]-thiourea], for which the melting point came to 247 °C.

`CCNC(=O)Nc1ccc2ncc(-c3ccc(F)cc3OCC)nc2n1` [Compound 112, 1-[3-(2-Ethoxy-4-fluoro-phenyl)-pyrido [2,3-b]pyrazin-6-yl]-3-ethyl-urea] displayed a melting point of 229 to 231 °C.

In the case of `COc1cc(-c2ccc3ncc(NC(=O)Nc4ccc([N+](=O)[O-])cc4)nc3n2)ccc1O` [Compound 616, 1-[6-(4-Hydroxy-3-methoxy-phenyl)-pyrido[2,3-b]pyrazin-3-yl]-3-(4-nitro-phenyl)-urea], the melting point lay in the range of 247 to 250 °C.

In the case of `CCNC(=S)Nc1ccc2ncc(Nc3ccc(O)c(Cl)c3)nc2n1` [Compound 441, 1-[3-(3-Chloro-4-hydroxy-phenylamino)-pyrido[2,3-b]pyrazin-6-yl]-3-ethyl-thiourea], the melting point is 220 °C.

On to `CCNC(=O)Nc1cnc2ccc(Nc3ccccc3)nc2n1` [Compound 13, 1-Ethyl-3-(6-phenylamino-pyrido[2,3-b]pyrazin-3-yl)-urea], for which the melting point turned out to be 202 °C.

Regarding `CCNC(=O)Nc1ccc2ncc(Nc3ccccc3OC)nc2n1` [Compound 153, 1-Ethyl-3-[3-(2-methoxy-phenylamino)-pyrido[2,3-b]pyrazin-6-yl]-urea], the melting point came to 225 °C.

As to `CCNC(=O)Nc1cnc2ccc(-c3ccc(OC(F)(F)F)c(F)c3)nc2n1` [Compound 640, 1-Ethyl-3-[6-(3-fluoro-4-trifluoromethoxy-phenyl)-pyrido[2,3-b]pyrazin-3-yl]-urea], the melting point worked out at 262 °C.

Regarding `COc1cc(-c2ccc3ncc(NC(=O)Nc4ccnc(N5CCOCC5)c4)nc3n2)ccc1O` [Compound 607, 1-[6-(4-Hydroxy-3-methoxy-phenyl)-pyrido[2,3-b]pyrazin-3-yl]-3-(2-morpholin-4-yl-pyridin-4-yl)-urea], the melting point was 260 to 263 °C.

With `CCNC(=O)Nc1cnc2ccc(Nc3ccc(O)cc3)nc2n1` [Compound 24, 1-Ethyl-3-[6-(4-hydroxy-phenylamino)-pyrido[2,3-b]pyrazin-3-yl]-urea], the melting point turned out to be 277 °C.

Compound `CCOc1ccc(NC(=O)Nc2cnc3ccc(-c4ccc(O)c(OC)c4)nc3n2)cc1` [Compound 624, 1-(4-Ethoxy-phenyl)-3-[6-(4-hydroxy-3-methoxy-phenyl)-pyrido[2,3-b]pyrazin-3-yl]-urea] registered a melting point of 242 to 245 °C.

Regarding `CCNC(=S)Nc1ccc2ncc(Nc3cccc(OC(C)C)c3)nc2n1` [Compound 163, 1-Ethyl-3-[3-(3-isopropoxy-phenylamino)-pyrido[2,3-b]pyrazin-6-yl]-thiourea], the melting point stood at 238 °C.

On to `CCNC(=O)Nc1cnc2ccc(-c3cc(Cl)c(O)c(Cl)c3)nc2n1` [Compound 9, 1-[6-(3,5-Dichloro-4-hydroxy-phenyl)-pyrido[2,3-b]pyrazin-3-yl]-3-ethyl-urea], for which the melting point was more than 300 °C.

Turning to `COc1ccc(-c2ccc3ncc(NC(=O)NC4CCCC4)nc3n2)cc1OC` [Compound 576, 1-Cyclopentyl-3-[6-(3,4-dimethoxy-phenyl)-pyrido[2,3-b]pyrazin-3-yl]-urea], the melting point was 261 to 264 °C.

As to `COc1cc(-c2ccc3ncc(NC(=O)Nc4cccc([N+](=O)[O-])c4)nc3n2)ccc1O` [Compound 618, 1-[6-(4-Hydroxy-3-methoxy-phenyl)-pyrido[2,3-b]pyrazin-3-yl]-3-(3-nitro-phenyl)-urea], the melting point lay in the range of 274 to 276 °C.

In turn, `CCNC(=S)Nc1ccc2ncc(Nc3ccc(C)cc3C)nc2n1` [Compound 399, 1-[3-(2,4-Dimethyl-phenylamino)-pyrido[2,3-b]pyrazin-6-yl]-3-ethyl-thiourea] gave a melting point of 215 °C.

Compound `CCNC(=O)Nc1ccc2ncc(-c3cc(F)c(F)c(F)c3)nc2n1` [Compound 81, 1-Ethyl-3-[3-(3,4,5-trifluoro-phenyl)-pyrido[2,3-b]pyrazin-6-yl]-urea] showed a melting point of 305.4 to 307.2 °C.

Consider `CC(=O)NCC(=O)Nc1ccc2ncc(Nc3ccc(C)cc3)nc2n1` [Compound 66, 2-Acetylamino-N-(3-p-tolylamino-pyrido [2,3-b]pyrazin-6-yl)-acetamide], for which the melting point is 276 to 279 °C.

`CCNC(=O)Nc1ccc2ncc(-c3ccc([N+](=O)[O-])cc3)nc2n1` [Compound 131, 1-Ethyl-3-[3-(4-nitro-phenyl)-pyrido[2,3-b]pyrazin-6-yl]-urea] yielded a melting point of more than 350 °C.
